Assay results: ChEMBL document CHEMBL4814078, “Novel CFTR Modulators for Treating Cystic Fibrosis” (ACS Med Chem Lett, 2021)

What follows are compounds tested against Cystic fibrosis transmembrane conductance regulator (Homo sapiens, UniProt P13569) (assay: Potentiation of CFTR in primary human epithelial enteroid cells assessed as chloride transport in presence of forskolin by measuring membrane potential incubated for 18 to 24 hrs by FLIPR Tetra based dye assay).
Sequence of Cystic fibrosis transmembrane conductance regulator (P13569 whole entry): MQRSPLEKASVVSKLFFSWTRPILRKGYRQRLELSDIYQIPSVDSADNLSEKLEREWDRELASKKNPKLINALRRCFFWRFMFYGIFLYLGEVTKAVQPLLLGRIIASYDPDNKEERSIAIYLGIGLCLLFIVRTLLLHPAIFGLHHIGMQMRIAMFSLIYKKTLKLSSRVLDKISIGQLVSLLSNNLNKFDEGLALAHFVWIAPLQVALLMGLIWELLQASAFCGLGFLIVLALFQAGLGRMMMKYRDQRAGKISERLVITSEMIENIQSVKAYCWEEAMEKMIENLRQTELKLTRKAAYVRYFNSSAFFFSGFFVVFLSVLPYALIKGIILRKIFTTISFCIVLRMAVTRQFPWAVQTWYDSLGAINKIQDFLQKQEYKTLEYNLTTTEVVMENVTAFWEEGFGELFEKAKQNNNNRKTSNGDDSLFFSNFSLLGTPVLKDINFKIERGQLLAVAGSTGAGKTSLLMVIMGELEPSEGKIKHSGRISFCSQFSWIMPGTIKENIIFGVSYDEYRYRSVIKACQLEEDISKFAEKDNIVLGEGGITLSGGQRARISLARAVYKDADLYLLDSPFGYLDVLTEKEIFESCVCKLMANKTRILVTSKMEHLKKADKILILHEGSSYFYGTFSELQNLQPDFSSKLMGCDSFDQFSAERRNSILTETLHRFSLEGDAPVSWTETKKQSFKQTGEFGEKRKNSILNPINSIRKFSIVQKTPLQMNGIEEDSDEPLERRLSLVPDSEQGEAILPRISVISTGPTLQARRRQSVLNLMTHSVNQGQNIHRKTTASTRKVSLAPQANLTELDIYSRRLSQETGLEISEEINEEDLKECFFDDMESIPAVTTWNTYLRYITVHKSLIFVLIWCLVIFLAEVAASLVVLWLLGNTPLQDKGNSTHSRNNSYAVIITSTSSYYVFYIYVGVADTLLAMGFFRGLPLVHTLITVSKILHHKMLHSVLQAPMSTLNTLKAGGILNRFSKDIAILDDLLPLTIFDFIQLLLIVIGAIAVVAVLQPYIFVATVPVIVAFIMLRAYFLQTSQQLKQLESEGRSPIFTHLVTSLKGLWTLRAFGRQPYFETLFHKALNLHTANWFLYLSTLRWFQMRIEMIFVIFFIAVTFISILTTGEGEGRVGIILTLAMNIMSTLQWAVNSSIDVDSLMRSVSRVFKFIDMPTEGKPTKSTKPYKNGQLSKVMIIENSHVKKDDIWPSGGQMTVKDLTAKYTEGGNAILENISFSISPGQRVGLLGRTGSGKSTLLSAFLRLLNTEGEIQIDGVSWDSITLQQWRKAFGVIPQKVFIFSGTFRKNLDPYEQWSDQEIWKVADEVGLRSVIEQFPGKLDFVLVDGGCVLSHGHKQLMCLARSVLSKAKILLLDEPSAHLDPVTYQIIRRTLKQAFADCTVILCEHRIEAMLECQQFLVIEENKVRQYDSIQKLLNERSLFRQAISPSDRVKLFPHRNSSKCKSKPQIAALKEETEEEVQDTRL
Type: tissue-based, Epithelial cell
`CC1(C)C[C@@H]2CCCNc3cccc(n3)S(=O)(=O)NC(=O)c3ccc(-n4ccc(OCCC[Si](C)(C)C)n4)nc3N1C2` gave an EC50 of less than 1000 nM. Work on `CC1(C)C[C@@H]2CCCNc3cccc(n3)S(=O)(=O)NC(=O)c3ccc(-n4ccc(OC[Si](C)(C)C)n4)nc3N1C2` yielded an EC50 of less than 1000 nM. With `CC1(C)C[C@@H]2CCCNc3cccc(n3)S(=O)(=O)NC(=O)c3ccc(-n4ccc(OCCC5([Si](C)(C)C)CC5)n4)nc3N1C2` the EC50 was less than 1000 nM. `CC1(C)C[C@@H]2CCCNc3cccc(n3)S(=O)(=O)NC(=O)c3ccc(-n4ccc(OC[Si](C)(C)C5(C(F)(F)F)CC5)n4)nc3N1C2` showed an EC50 of less than 1000 nM. Work on `CC1(C)C[C@@H]2CCCNc3cccc(n3)S(=O)(=O)NC(=O)c3ccc(-n4ccc(OCC[Si](C)(C)C)n4)nc3N1C2` yielded an EC50 of less than 1000 nM. `CC(C)(C)CC[Si](C)(C)c1ccn(-c2ccc3c(n2)N2C[C@@H](CCCNc4cccc(n4)S(=O)(=O)NC3=O)CC2(C)C)n1` showed an EC50 of less than 1000 nM.
